Measurements reported in EP4635945A1, “CRYSTAL FORM OF PROXIMOD, PREPARATION METHOD THEREFOR, AND USE THEREOF” (Jiankuan (Suzhou) Biotechnology Co., Ltd, priority 2022, dated 2024).

Assay: Dynamic solubility in biorelevant media and buffers at 37 °C (HPLC, XRPD of solids)
Assay type: physicochemical
Conditions: for solubility at 1 h / solubility at 4 h / solubility at 24 h / solubility at 2 h: thermodynamic from solid
Protocol: After 1 hour/2 hours/4 hours/24 hours, the saturated solutions were obtained by filtration. The actual concentrations of the samples in the saturated solutions were determined by high-performance liquid chromatography (HPLC) (the filtered solutions were diluted as needed), and the crystal forms of the solids before and after the experiment were characterized by XRPD to check whether phase changes occurred.

[1] = FaSSIF (pH of 8.0), 1 hour, hydrochloride
[2] = FaSSIF (pH of 8.0), 2 hours, hydrochloride
[3] = FaSSIF (pH of 8.0), 4 hours, hydrochloride
[4] = FaSSIF (pH of 8.0), 24 hours, hydrochloride
[5] = FeSSIF (pH of 5.0), 4 hours, hydrochloride
[6] = pH = 1.0 hydrochloric acid aqueous solution, 2 hours
[7] = pH = 4.0 acetic acid-sodium acetate buffer, 1 hour, hydrochloride
[8] = pH = 4.0 acetic acid-sodium acetate buffer, 2 hours, hydrochloride
[9] = pH = 4.0 acetic acid-sodium acetate buffer, 4 hours, hydrochloride
[10] = pH = 4.0 acetic acid-sodium acetate buffer, 24 hours, hydrochloride
[11] = pH = 6.8 phosphate buffer, 1 hour
[12] = pH = 6.8 phosphate buffer, 2 hours
[13] = pH = 6.8 phosphate buffer, 4 hours
[14] = pH = 6.8 phosphate buffer, 24 hours

SMILES: CCCc1nc(-c2ccc(-c3ccc(CCC(N)(CO)CO)cc3)cc2)co1.Cl [Crystal form A, 2-amino-2-{2-(4'-(2-propyloxazol-4-yl)-[1,1'-biphenyl]-4-yl)ethyl}-1,3-propanediol hydrochloride]
- Crystal form of the solid [1]: A + Free alkali
- Solubility [1]: 22 µg/mL
- Crystal form of the solid [2]: A + Free alkali
- Solubility [2]: 24 µg/mL
- Crystal form of the solid (FaSSIF (pH of 8.0), 4 hours): Free alkali
- Solubility [3]: 18 µg/mL
- Crystal form of the solid (FaSSIF (pH of 8.0), 24 hours): Free alkali
- Solubility [4]: 16 µg/mL
- Solubility [5]: 340 µg/mL
- Crystal form of the solid (FeSSIF (pH of 5.0), 24 hours): no crystal form change
- Crystal form of the solid (SGF (pH of 1.0), 1 hour): A + F
- Crystal form of the solid (SGF (pH of 1.0), 2 hours): A + F
- Crystal form of the solid (SGF (pH of 1.0), 4 hours): A + F
- Crystal form of the solid (SGF (pH of 1.0), 24 hours): A + F
- Crystal form of the solid (Water, 1 hour, hydrochloride): A + F
- Crystal form of the solid (Water, 2 hours, hydrochloride): A + F
- Crystal form of the solid (Water, 4 hours, hydrochloride): A + F
- Solubility (Water, 4 hours, hydrochloride): 990 µg/mL
- Crystal form of the solid (Water, 24 hours, hydrochloride): A + F
- solubility at 1 h (acetic acid-sodium acetate buffer, pH 4, aqueous buffer, pH = 4.0 acetic acid-sodium acetate buffer, 1 hour): 1690 µg/mL
- solubility at 4 h (acetic acid-sodium acetate buffer, pH 4, aqueous buffer, pH = 4.0 acetic acid-sodium acetate buffer, 4 hours): 1360 µg/mL
- solubility at 24 h (acetic acid-sodium acetate buffer, pH 4, aqueous buffer, pH = 4.0 acetic acid-sodium acetate buffer, 24 hours): 4110 µg/mL
- solubility at 1 h (fed state simulated intestinal fluid (FeSSIF), pH 5, fessif, FeSSIF (pH of 5.0), 1 hour): 1930 µg/mL
- solubility at 2 h (fed state simulated intestinal fluid (FeSSIF), pH 5, fessif, FeSSIF (pH of 5.0), 2 hours): 2110 µg/mL
- solubility at 24 h (fed state simulated intestinal fluid (FeSSIF), pH 5, fessif, FeSSIF (pH of 5.0), 24 hours): 3720 µg/mL
- solubility at 1 h (hydrochloric acid aqueous solution, pH 1, simulated gastric fluid, pH = 1.0 hydrochloric acid aqueous solution, 1 hour): 280 µg/mL
- solubility at 2 h (hydrochloric acid aqueous solution, pH 1, simulated gastric fluid, pH = 1.0 hydrochloric acid aqueous solution, 2 hours): 280 µg/mL
- solubility at 4 h (hydrochloric acid aqueous solution, pH 1, simulated gastric fluid, pH = 1.0 hydrochloric acid aqueous solution, 4 hours): 330 µg/mL
- solubility at 24 h (hydrochloric acid aqueous solution, pH 1, simulated gastric fluid, pH = 1.0 hydrochloric acid aqueous solution, 24 hours): 400 µg/mL
- Crystal form of the solid (pH = 1.0 hydrochloric acid aqueous solution, 1 hour): A + F
- Crystal form of the solid [6]: A + F
- Crystal form of the solid (pH = 1.0 hydrochloric acid aqueous solution, 4 hours): A + F
- Crystal form of the solid (pH = 1.0 hydrochloric acid aqueous solution, 24 hours): A + F
- Crystal form of the solid [7]: A + F
- Crystal form of the solid [8]: A + F
- Solubility [8]: 1130 µg/mL
- Crystal form of the solid [9]: A + F
- Crystal form of the solid [10]: A + F
- Crystal form of the solid [11]: Free alkali
- Crystal form of the solid [12]: Free alkali
- Solubility (pH = 6.8 phosphate buffer, 2 hours, hydrochloride): Not detected
- Crystal form of the solid [13]: Free alkali
- Solubility [13]: Not detected
- Crystal form of the solid [14]: Free alkali
- Solubility [14]: Not detected
- solubility at 1 h (phosphate buffer, pH 6.8, aqueous buffer, pH = 6.8 phosphate buffer, 1 hour): 0.16 µg/mL
- solubility at 1 h (simulated gastric fluid (SGF), pH 1, simulated gastric fluid, SGF (pH of 1.0), 1 hour): 260 µg/mL
- solubility at 2 h (simulated gastric fluid (SGF), pH 1, simulated gastric fluid, SGF (pH of 1.0), 2 hours): 250 µg/mL
- solubility at 4 h (simulated gastric fluid (SGF), pH 1, simulated gastric fluid, SGF (pH of 1.0), 4 hours): 280 µg/mL
- solubility at 24 h (simulated gastric fluid (SGF), pH 1, simulated gastric fluid, SGF (pH of 1.0), 24 hours): 460 µg/mL
- solubility at 1 h (water, 1 hour): 2020 µg/mL
- solubility at 2 h (water, 2 hours): 2570 µg/mL
- solubility at 24 h (water, 24 hours): 3290 µg/mL

SMILES: CCCc1nc(-c2ccc(-c3ccc(CCC(N)(CO)CO)cc3)cc2)co1.Cl [Crystal form B, 2-amino-2-{2-(4'-(2-propyloxazol-4-yl)-[1,1'-biphenyl]-4-yl)ethyl}-1,3-propanediol hydrochloride]
- Crystal form of the solid [1]: Free alkali
- Solubility [1]: 70 µg/mL
- Crystal form of the solid [2]: Free alkali
- Solubility [2]: 200 µg/mL
- Crystal form of the solid (FaSSIF (pH of 8.0), 4 hours): Free alkali
- Solubility [3]: 410 µg/mL
- Crystal form of the solid (FaSSIF (pH of 8.0), 24 hours): Free alkali
- Solubility [4]: 100 µg/mL
- Solubility (FeSSIF (pH of 5.0), 1 hour, hydrochloride): 2580 µg/mL
- Solubility (FeSSIF (pH of 5.0), 2 hours, hydrochloride): 2300 µg/mL
- Solubility [5]: 2560 µg/mL
- Crystal form of the solid (FeSSIF (pH of 5.0), 24 hours): no crystal form change
- Solubility (FeSSIF (pH of 5.0), 24 hours, hydrochloride): 3460 µg/mL
- Solubility (SGF (pH of 1.0), 1 hour, hydrochloride): 310 µg/mL
- Solubility (SGF (pH of 1.0), 2 hours, hydrochloride): 270 µg/mL
- Solubility (SGF (pH of 1.0), 4 hours, hydrochloride): 290 µg/mL
- Solubility (SGF (pH of 1.0), 24 hours, hydrochloride): 310 µg/mL
- Crystal form of the solid (Water, 1 hour, hydrochloride): B + F
- Solubility (Water, 1 hour, hydrochloride): 1910 µg/mL
- Crystal form of the solid (Water, 2 hours, hydrochloride): B + F
- Solubility (Water, 2 hours, hydrochloride): 2430 µg/mL
- Crystal form of the solid (Water, 4 hours, hydrochloride): B + F
- Solubility (Water, 4 hours, hydrochloride): 2240 µg/mL
- Crystal form of the solid (Water, 24 hours, hydrochloride): B + F
- Solubility (Water, 24 hours, hydrochloride): 2610 µg/mL
- Solubility (pH = 1.0 hydrochloric acid aqueous solution, 1 hour, hydrochloride): 270 µg/mL
- Solubility [6]: 280 µg/mL
- Solubility (pH = 1.0 hydrochloric acid aqueous solution, 4 hours, hydrochloride): 280 µg/mL
- Solubility (pH = 1.0 hydrochloric acid aqueous solution, 24 hours, hydrochloride): 300 µg/mL
- Crystal form of the solid [7]: B + F
- Solubility [7]: 1910 µg/mL
- Crystal form of the solid [8]: B + F
- Solubility [8]: 2350 µg/mL
- Crystal form of the solid [9]: B + F
- Solubility [9]: 1990 µg/mL
- Crystal form of the solid [10]: B + F
- Solubility [10]: 2310 µg/mL
- Crystal form of the solid [11]: Free alkali
- Solubility (pH = 6.8 phosphate buffer, 1 hour, hydrochloride): Not detected
- Crystal form of the solid [12]: Free alkali
- Crystal form of the solid [13]: Free alkali
- Solubility [13]: Not detected
- Crystal form of the solid [14]: Free alkali
- Solubility [14]: Not detected
- solubility at 2 h (phosphate buffer, pH 6.8, aqueous buffer, pH = 6.8 phosphate buffer, 2 hours): 0.28 µg/mL
